Assays:
[1] = Antimicrobial activity against Campylobacter fetus subsp. fetus CA75 harboring pCA75 carrying ant(6)-Ib resistant gene of 1516477 in presence of 5% lacked horse blood; assay type: functional
[2] = Antimicrobial activity against Campylobacter fetus subsp. fetus CA80 harboring ciprofloxacin-resistant gene and IMD523-06 pathogenicity island with tet(44) and ant(6)-Ib resistant marker gene in presence of 5% lacked horse blood; assay type: functional
[3] = Antimicrobial activity against ciprofloxacin-resistant Campylobacter fetus subsp. fetus 1516477 human isolate lacking tet(44) and ant(6)-Ib resistance genes in presence of 5% lacked horse blood
[4] = Antimicrobial activity against nalidixic acid-resistant Campylobacter fetus subsp. fetus IMD523-06 bovine isolate harboring tet(44) and ant(6)-Ib resistance gene in presence of 5% lacked horse blood; assay type: functional
[5] = Antimicrobial activity against kanamycin-resistant Campylobacter fetus subsp. fetus CA74 harboring deletion in tet(44)::pCA64 resistant gene in presence of 5% lacked horse blood; assay type: functional
[6] = Antimicrobial activity against kanamycin-resistant Campylobacter fetus subsp. fetus CA76 harboring deletion in ant(6)-Ib::pCA76 in presence of 5% lacked horse blood; assay type: functional
[7] = Antimicrobial activity against Campylobacter fetus subsp. fetus CA73 harboring pCA73 carrying tet(44) resistance gene of 1516477 in presence of 5% lacked horse blood; assay type: functional

Row | SMILES | MIC [1] | MIC [2] | MIC [3] | MIC [4] | MIC [5] | MIC [6] | MIC [7]
1 | C[C@H]1c2cccc(O)c2C(=O)C2=C(O)[C@]3(O)C(=O)C(C(N)=O)=C(O)[C@@H](N(C)C)[C@@H]3[C@@H](O)[C@@H]21.O [DOXYCYCLINE] | 0.5 µg/mL | 4 µg/mL | 0.5 µg/mL | 8 µg/mL | 0.5 µg/mL | 8 µg/mL | 32 µg/mL
2 | CN(C)[C@@H]1C(O)=C(C(N)=O)C(=O)[C@@]2(O)C(O)=C3C(=O)c4c(O)cccc4[C@@](C)(O)[C@H]3C[C@@H]12 [TETRACYCLINE] | 1 µg/mL | 16 µg/mL | 1 µg/mL | 16 µg/mL | 1 µg/mL | 16 µg/mL | > 32 µg/mL
3 | CN(C)c1ccc(O)c2c1C[C@H]1C[C@H]3[C@H](N(C)C)C(O)=C(C(N)=O)C(=O)[C@@]3(O)C(O)=C1C2=O [MINOCYCLINE] | 1 µg/mL | 16 µg/mL | 1 µg/mL | 16 µg/mL | 2 µg/mL | 16 µg/mL | 32 µg/mL
4 | CN[C@@H]1[C@H](O[C@H]2[C@H](O[C@H]3[C@H](O)[C@@H](O)[C@H](N=C(N)N)[C@@H](O)[C@@H]3N=C(N)N)O[C@@H](C)[C@]2(O)C=O)O[C@@H](CO)[C@H](O)[C@H]1O [STREPTOMYCIN] | 64 µg/mL | 64 µg/mL | ≤ 1 µg/mL | > 64 µg/mL | > 64 µg/mL | ≤ 1 µg/mL | ≤ 1 µg/mL

— ChEMBL document CHEMBL1275248, “Two novel antibiotic resistance genes, tet(44) and ant(6)-Ib, are located within a transferable pathogenicity island in Campylobacter fetus subsp. fetus” (2010)
